Data taken from paper PMC12664080, “Tetrazole-containing naphthalene bis-sulfonamide Keap1-Nrf2 interaction inhibitors with unexpected binding modes” (Redox Biology, 2025).

How the values were obtained:
Keap1 Kelch domain [1] = biological target: T1, Keap1 Kelch domain (Homo sapiens, UniProt Q14145); experiment: Differential scanning fluorimetry (DSF) thermal shift assay; type: binding; settings: 10 μM compound; Keap1 vehicle control Ti = 61.3 ± 0.3 °C
T1 construct: made in house
Protocol: The DSF assays were carried out according to the previously described method. Solutions of the Keap1 Kelch domain protein (5 μM final concentration) and the small molecule inhibitor (10 μM final concentration) were prepared in DPBS at pH 7.4 (10 % final DMSO concentration, 20 μL final volume) in an Eppendorf tube. The solution was centrifuged briefly (1500 rpm, 60 s) to remove any particulates and mix the samples, followed by a 30 min incubation at RT. The samples were loaded into Tycho NT.6 capillaries (Nanotemper) in triplicate and positioned in the […] instrument. […] The fluorescence ratio vs temperature was plotted and the inflection temperature (Ti) of the profile was recorded. Changes in inflection (ΔTi) for the inhibitors were calculated by subtracting the mean Ti of the Keap1 sample plus vehicle from the mean Keap1 plus binder value (n = 3).

Keap1 Kelch domain [2] = biological target: T1, Keap1 Kelch domain; experiment: Fluorescence polarisation (FP) competition assay; type: binding; settings: for inhibition at 10 µM: read-out: FP percentage inhibition at 10 μM concentration of inhibitor; for IC50: 200 nM Keap1 Kelch domain, 1 nM FITC-β-DEETGEF-OH
Protocol: The FP assays were carried out according to previously described methods [[23],[31], [32], [33], [34]]. […] Following incubation under slow agitation (30 min at rt in the absence of light), the plates were transferred to a PHERAstar microplate reader and the FP was recorded. All measurements were recorded in triplicate. The data were normalised to the control and then fitted to a standard four-parameter logistic function using the Origin Pro software.

NQO1 = NQO1 induction assay in Hepa1c1c7 cells; type: cell-based, mouse; settings: Mus musculus, Hepa-1c1c7, 10 μM
Protocol: The method using Hepa1c1c7 cells has been described previously. Briefly, cells were seeded into 96-well plates (2 × 10^4 cells/200 μL per well) then incubated overnight at 37 °C. The cells were treated with compound (10 μM final concentration) or vehicle (final DMSO concentration 0.1 % DMSO) and incubated for a further 24 h or 48 h. The culture medium was aspirated and the cells treated with lysis buffer (50 μL per well, 0.1 % Tween 20 in 2 mM EDTA (pH 7.5)) then agitated for 15 min. Enzyme reaction mixture was added to each well (200 μL of 25 mM Tris buffer (pH 7.5) containing BSA (0.067 %), Tween20 (0.01 %), FAD (5 μM), G6P (1 mM), NADP (30 μM), G6P dehydrogenase (40 units), MTT (0.03 %), menadione (50 μM)) for 5 min then stop solution was applied (40 μL of 10 % SDS, final concentration 1.5 % SDS). Following brief agitation of the plate, the absorbance at 595 nm was measured. The background optical density was measured from wells containing tissue culture medium, lysis buffer, enzyme and stop solutions in the absence of Hepa1c1c7 cells. The change in background-corrected NQO1 activity (change in optical density) relative to the control was determined for each compound.

[3] = 1D 1H NMR lineshape analysis of cis/trans rotamer exchange; settings: DMSO; for kA→B / ΔH^‡AB / ΔHAB: lineshape; for ΔH^‡AB: Eyring; for ΔHAB: van't Hoff
Protocol: Exchange was quantified using a two-site exchange model [40] implemented in Julia, where resonances were fitted to calculate chemical shifts of the two states and the exchange rates kAB and kBA between them. […] Reported uncertainties were determined from the standard errors of the fits.
Exchange rates kAB and kBA were used to determine the relative populations pA=kBA/kAB+kBA and pB=kAB/kAB+kBA and were fitted to van't Hoff and Eyring equations (with unit transmission coefficient) to estimate the enthalpy and entropy changes and enthalpy and entropy of activation.

Nrf2 = Nrf2 luciferase reporter assay (MCF7 ARE-luciferase reporter cell line); type: cell-based; settings: Homo sapiens; 100 μM (highest test concentration), MCF7 cells; read-out: peak fold induction of luciferase activity
Protocol: The induction of luciferase activity in the stably transfected MCF7 ARE-luciferase reporter cell line was measured using an adaptation of a published procedure. […] The cells were treated with compound or vehicle control (1 % final DMSO concentration) and incubated for a further 24 h. The culture medium was aspirated and the cells were washed with 100 μL per well PBS. The cells were lysed using 75 μL per well lysis buffer (0.2 % Triton X-100 in 25 mM Tris pH 7.5) under gentle agitation at rt for 30 min. The samples were transferred to 500 μL Eppendorf tubes and centrifuged at 10000 g for 5 min at 4 °C. 50 μL of supernatant from each sample were transferred to a new 96 well plate. 50 uL of working reagent (100 mM Tris pH 8.0, 5 mM MgCl2, 100 μM coenzyme A, 80 μM luciferin, and 5 mM ATP) were added to each well and the luciferase activity was measured.

Keap1 = Keap1 (Homo sapiens, UniProt Q14145); experiment: Microscale thermophoresis (MST); settings: 10 nM Keap1
Protocol: Keap1 was labelled using the Protein Labelling Kit RED-NHS 2nd Generation (NanoTemper, München, Germany). Keap1 was diluted to 2 μM in RED-NHS Labelling Buffer. 10 μg of RED-NHS 2nd Generation labelling dye was freshly dissolved in 25 μL of DMSO to yield a concentration of 600 μM, then further diluted in RED-NHS Labelling Buffer to 300 μM. A volume of 20 μL of the 300 μM labelling dye was thoroughly mixed with 180 μL of 2 μM Keap1 and incubated at rt in a dark environment for 3 h. […] The sample was transferred to the centre of the resin bed in the B-column. 550 μL of Keap1 MST buffer was pipetted into the B-column and allowed to enter completely, followed by elution of the sample with 450 μL of Keap1 MST buffer and the flow-through was collected into a 1.5 mL Eppendorf tube. The collected sample was centrifuged at 15,000×g for 10 min at 4 °C to remove aggregates. Protein concentration in the collected sample was determined using the NanoDrop spectrophotometer. The sample was then tested in MST pre-test to evaluate the labelling quality.
Labelled Keap1 was diluted to 20 nM in Keap1 MST buffer prior to the reaction setup. […] An equal volume of 20 nM Keap1 was thoroughly mixed with each diluted sample and incubated for 30 min at rt. […] An equal volume of 2 nM Keap1 was mixed with each diluted sample and incubated at rt for 30 min. Incubated samples were loaded into Monolith NT.115 standard capillaries and measured using the Monolith NT.115^Pico instrument in triplicate. Parameters and measurements were set and controlled by the MO.Control software and collected datasets were analysed using the MO.Affinity Analysis software.

Keap1 Kelch domain [4] = biological target: T1, Keap1 Kelch domain; experiment: Isothermal titration calorimetry (ITC); type: binding; settings: 25 °C; read-out: ITC Kd
Protocol: The measurements were performed as described previously. The small molecule inhibitor at 500 μM was titrated over 30 injections against 50 μM protein in buffer containing 25 mM HEPES (pH 7.4), 200 mM NaCl and 5 % DMSO. ITC experiments were performed using a MicroCal PEAQ-ITC instrument (Malvern Instruments, UK) at 25 °C with a stirring speed of 750 rpm. The first injection volume was of 0.3 μL followed by 29 injections of 1.3 μL and a gap of 120 s between each injection. Data analyses were performed as previously described. Each small molecule ITC measurement was performed in duplicate and resultant values obtained were averaged after independent analysis.

T1 sequence (Q14145 322-609): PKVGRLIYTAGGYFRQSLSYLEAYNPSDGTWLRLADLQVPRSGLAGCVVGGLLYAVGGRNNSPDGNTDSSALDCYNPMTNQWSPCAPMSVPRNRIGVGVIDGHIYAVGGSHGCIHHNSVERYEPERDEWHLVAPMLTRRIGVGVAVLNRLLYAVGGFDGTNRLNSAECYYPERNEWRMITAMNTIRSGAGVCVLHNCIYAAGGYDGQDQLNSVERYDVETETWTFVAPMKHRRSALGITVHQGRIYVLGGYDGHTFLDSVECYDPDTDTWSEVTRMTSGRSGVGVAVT
Chain of Keap1 (Q14145 322-609): as above

**Q.** Which “DSF ΔTi” value (Keap1 Kelch domain [1]) does the source give for `COc1ccc(S(=O)(=O)N(Cc2nnc(C)o2)c2ccc(N(Cc3nnc(C)o3)S(=O)(=O)c3ccc(OC)cc3)c3ccccc23)cc1` [Compound 17, N,N'-(Naphthalene-1,4-diyl)bis(4-methoxy-N-((5-methyl-1,3,4-oxadiazol-2-yl)methyl)benzenesulfonamide)] here?
**A.** 0.6 ± 0.1 °C

**Q.** And the “binding activity in FP assay” value (Keap1 Kelch domain [2])?
**A.** not tolerated

**Q.** What about the inhibition at 10 µM (Keap1 Kelch domain [2]) of the same compound?
**A.** 0%

**Q.** What about the fold induction at 10 µM (NQO1) of the same compound?
**A.** 1.25 ± 0.18

**Q.** With `COc1ccc(S(=O)(=O)N(CC(N)=O)c2ccc(N(CC(N)=O)S(=O)(=O)c3ccc(OC)cc3)c3ccccc23)cc1` [Compound 4, 2,2'-(Naphthalene-1,4-diylbis(((4-methoxyphenyl)sulfonyl)azanediyl))diacetamide] as the compound, how does the “DSF ΔTi” value (Keap1 Kelch domain [1]) read?
**A.** 7.6 ± 0.1 °C

**Q.** For `COc1ccc(S(=O)(=O)N(CC#N)c2ccc(N(CC#N)S(=O)(=O)c3ccc(OC)cc3)c3ccccc23)cc1` [Compound 12, N,N'-(Naphthalene-1,4-diyl)bis(N-(cyanomethyl)-4-methoxybenzenesulfonamide)], which inhibition at 10 µM (Keap1 Kelch domain [2]) is on record?
**A.** 0%

**Q.** And the fold induction at 10 µM (NQO1)?
**A.** 0.89 ± 0.24

**Q.** For `COc1ccc(S(=O)(=O)N(CC(=O)O)c2ccc(N(CC(=O)O)S(=O)(=O)c3ccc(OC)cc3)c3ccccc23)cc1` [Compound 2, 2,2'-(Naphthalene-1,4-diylbis(((4-methoxyphenyl)sulfonyl)azanediyl))diacetic acid, reference compound], which “Occupancy of the more shielded state (A)” value ([3]; 300 K) is on record?
**A.** 0.426 ±0.001

**Q.** What about the kA→B ([3]; 300 K) of the same compound?
**A.** 3.175 ± 0.005 s⁻¹

**Q.** What about the “Occupancy of the more shielded state (A)” value ([3]; 310 K) of the same compound?
**A.** 0.436 ±0.001

**Q.** What about the kA→B ([3]; 310 K) of the same compound?
**A.** 8.456 ± 0.024 s⁻¹

**Q.** And the “Occupancy of the more shielded state (A)” value ([3]; 320 K)?
**A.** 0.443 ±0.001

**Q.** What about the kA→B ([3]; 320 K) of the same compound?
**A.** 18.949 ± 0.04 s⁻¹

**Q.** And the “ΔH^‡AB” value [3]?
**A.** 15.8 ± 0.598 kcal/mol

**Q.** And the ΔHAB [3]?
**A.** -0.636 ± 0.0598 kcal/mol

**Q.** What about the fold induction at 100 µM (Nrf2) of the same compound?
**A.** 10.9

**Q.** And the fold induction at 10 µM (NQO1)?
**A.** 2.34 ± 0.35

**Q.** For `CCOC(=O)CN(c1ccc(N(CC(=O)O)S(=O)(=O)c2ccc(OC)cc2)c2ccccc12)S(=O)(=O)c1ccc(OC)cc1` [Compound 22, 2-(N-(4-(N-(2-Ethoxy-2-oxoethyl)-4-methoxyphenylsulfonamido)naphthalen-1-yl)-4-methoxyphenylsulfonamido)acetic acid], which “binding activity in FP assay” value (Keap1 Kelch domain [2]) is on record?
**A.** inactive

**Q.** And the inhibition at 10 µM (Keap1 Kelch domain [2])?
**A.** 0%

**Q.** And the fold induction at 10 µM (NQO1)?
**A.** 0.77 ± 0.18

**Q.** Which results are given for `COc1ccc(S(=O)(=O)N(Cc2nnn[nH]2)c2ccc(N(Cc3nnn[nH]3)S(=O)(=O)c3ccc(OC)cc3)c3ccccc23)cc1` [Compound 13, N,N'-(Naphthalene-1,4-diyl)bis(N-((1H-tetrazol-5-yl)methyl)-4-methoxybenzenesulfonamide)]?
**A.** Occupancy of the more shielded state (A) ([3]; 300 K): 0.542 ±0.003; kA→B ([3]; 300 K): 1.063 ± 0.008 s⁻¹; Occupancy of the more shielded state (A) ([3]; 310 K): 0.548 ±0.001; kA→B ([3]; 310 K): 1.459 ± 0.006 s⁻¹; Occupancy of the more shielded state (A) ([3]; 320 K): 0.552 ±0.001; kA→B ([3]; 320 K): 2.927 ± 0.010 s⁻¹; ΔH^‡AB [3]: 10.4 ± 2.29 kcal/mol; ΔHAB [3]: -0.394 ± 0.0406 kcal/mol; DSF ΔTi (Keap1 Kelch domain [1]): 20.4 ± 0.1 °C; IC50 (Keap1 Kelch domain [2]): 76 ± 3 nM; Kd (Keap1): 17.1 ± 2.6 nM; Kd (Keap1 Kelch domain [4]): 75.6 ± 33.9 nM; fold induction at 10 µM (NQO1): 1.94 ± 0.22

**Q.** What does the source list for `COc1ccc(S(=O)(=O)N(CC(N)=O)c2ccc(N(CC(=O)O)S(=O)(=O)c3ccc(OC)cc3)c3ccccc23)cc1` [Compound 23, 2-(N-(4-(N-(2-Amino-2-oxoethyl)-4-methoxyphenylsulfonamido)naphthalen-1-yl)-4-methoxyphenylsulfonamido)acetic acid]?
**A.** DSF ΔTi (Keap1 Kelch domain [1]): 10.0 ± 0.2 °C; IC50 (Keap1 Kelch domain [2]): 143 ± 18 nM; fold induction at 10 µM (NQO1): 1.9 ± 0.05

**Q.** With `CCOC(=O)CN(c1ccc(N(CC(=O)OCC)S(=O)(=O)c2ccc(OC)cc2)c2ccccc12)S(=O)(=O)c1ccc(OC)cc1` [Compound 11, Diethyl 2,2'-(naphthalene-1,4-diylbis(((4-methoxyphenyl)sulfonyl)azanediyl))diacetate] as the compound, how does the inhibition at 10 µM (Keap1 Kelch domain [2]) read?
**A.** 0%
